The text below walks through data of patent US10093630B2, “Pyrazole compounds and methods of making and using same” (ABIDE THERAPEUTICS, INC., priority 2014, dated 2018).

Some results are limits rather than exact numbers.

What all share (assay): In vitro competitive activity-based protein profiling (gel-based, FP-Rh or HT-01 probe)
What all share (format): biochemical

The target in one assay is T1, ABHD6 (Mus musculus, UniProt Q8R2Y0).
T1 construct: Proteomes (mouse brain membrane fraction or cell lysates); from tissue; host or cells: mouse brain membrane fraction (or cell lysates, not specified)
T1 sequence (Q8R2Y0 1-336): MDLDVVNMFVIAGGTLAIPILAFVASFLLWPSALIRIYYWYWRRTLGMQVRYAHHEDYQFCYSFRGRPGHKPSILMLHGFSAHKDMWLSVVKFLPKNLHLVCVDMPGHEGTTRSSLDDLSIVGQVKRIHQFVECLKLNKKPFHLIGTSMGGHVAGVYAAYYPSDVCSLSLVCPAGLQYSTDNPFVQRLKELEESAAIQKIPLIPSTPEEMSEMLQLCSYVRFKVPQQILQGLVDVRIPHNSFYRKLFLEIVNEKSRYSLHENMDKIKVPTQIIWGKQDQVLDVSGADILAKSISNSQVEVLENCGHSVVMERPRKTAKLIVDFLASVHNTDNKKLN
The following applies: for inhibition at 1 µM: 1 μM inhibitor, read-out: % Inhibition at 1 μM, C = ABHD6; for inhibition at 10 µM: 10 μM inhibitor, read-out: % Inhibition at 10 μM, C = ABHD6. The protocol:
(§1) In Vitro Competitive Activity-Based Protein Profiling.
(§2) Proteomes (mouse brain membrane fraction or cell lysates) (50 μL, 1.0 mg/mL total protein concentration) were preincubated with varying concentrations of inhibitors at 37° C. After 30 min, FP-Rh or HT-01 ([…], 50 μM in DMSO) was added and the mixture was incubated for another 30 min at 37° C. Reactions were quenched with SDS loading buffer (15 μL—4×) and run on SDS-PAGE. Following gel imaging, serine hydrolase activity was determined by measuring fluorescent intensity of gel bands corresponding to MAGL, ABHD6, FAAH, and PLA2G7 using ImageJ 1.43u software.

A further assay addresses T2, FAAH (Mus musculus, UniProt O08914).
T2 construct: Proteomes (mouse brain membrane fraction or cell lysates); from tissue; host or cells: mouse brain membrane fraction (or cell lysates, not specified)
T2 sequence (O08914 1-579): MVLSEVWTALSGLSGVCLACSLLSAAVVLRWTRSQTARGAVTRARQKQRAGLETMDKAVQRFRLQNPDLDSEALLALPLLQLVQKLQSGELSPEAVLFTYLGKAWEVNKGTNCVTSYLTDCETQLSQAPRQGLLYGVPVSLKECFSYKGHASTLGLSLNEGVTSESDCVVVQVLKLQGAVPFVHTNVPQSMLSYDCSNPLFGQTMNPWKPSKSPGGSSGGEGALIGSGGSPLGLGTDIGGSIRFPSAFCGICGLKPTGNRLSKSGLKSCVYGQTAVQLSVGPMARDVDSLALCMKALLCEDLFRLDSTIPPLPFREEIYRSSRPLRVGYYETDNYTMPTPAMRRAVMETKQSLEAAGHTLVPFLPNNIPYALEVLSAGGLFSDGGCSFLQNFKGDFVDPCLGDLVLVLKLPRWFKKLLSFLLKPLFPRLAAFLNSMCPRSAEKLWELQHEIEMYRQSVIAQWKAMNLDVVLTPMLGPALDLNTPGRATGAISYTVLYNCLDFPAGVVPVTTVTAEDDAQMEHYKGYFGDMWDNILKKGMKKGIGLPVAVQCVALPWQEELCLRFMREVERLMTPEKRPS
The following applies: for inhibition at 1 µM: 1 μM inhibitor, read-out: % Inhibition at 1 μM, B = FAAH; for inhibition at 10 µM: 10 μM inhibitor, read-out: % Inhibition at 10 μM, B = FAAH. The protocol:
as §1, §2

The target of another assay is T3, MAGL (Mus musculus, UniProt O35678).
T3 construct: Proteomes (mouse brain membrane fraction or cell lysates); from tissue; host or cells: mouse brain membrane fraction (or cell lysates, not specified)
T3 sequence (O35678 1-303): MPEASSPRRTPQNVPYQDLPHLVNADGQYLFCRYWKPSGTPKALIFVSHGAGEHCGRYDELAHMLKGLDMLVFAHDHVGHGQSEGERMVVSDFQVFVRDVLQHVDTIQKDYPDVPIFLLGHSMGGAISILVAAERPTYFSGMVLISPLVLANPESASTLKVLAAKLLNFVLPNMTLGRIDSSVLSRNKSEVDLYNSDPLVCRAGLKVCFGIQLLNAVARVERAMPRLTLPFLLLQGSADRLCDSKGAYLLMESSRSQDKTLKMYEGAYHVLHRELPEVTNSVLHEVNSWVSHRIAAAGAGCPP
The following applies: for inhibition at 1 µM: 1 μM inhibitor; for inhibition at 10 µM: 10 μM inhibitor; for IC50: mouse brain membrane fraction or cell lysates, 30 min preincubation at 37° C., read-out: Mouse (IC50 value, nM) MAGL. The method, then:
as §1, §2

The next assay addresses T4, PLA2G7 (Mus musculus, UniProt Q60963).
T4 construct: Proteomes (mouse brain membrane fraction or cell lysates); from tissue; host or cells: mouse brain membrane fraction (or cell lysates, not specified)
T4 sequence (Q60963 22-440): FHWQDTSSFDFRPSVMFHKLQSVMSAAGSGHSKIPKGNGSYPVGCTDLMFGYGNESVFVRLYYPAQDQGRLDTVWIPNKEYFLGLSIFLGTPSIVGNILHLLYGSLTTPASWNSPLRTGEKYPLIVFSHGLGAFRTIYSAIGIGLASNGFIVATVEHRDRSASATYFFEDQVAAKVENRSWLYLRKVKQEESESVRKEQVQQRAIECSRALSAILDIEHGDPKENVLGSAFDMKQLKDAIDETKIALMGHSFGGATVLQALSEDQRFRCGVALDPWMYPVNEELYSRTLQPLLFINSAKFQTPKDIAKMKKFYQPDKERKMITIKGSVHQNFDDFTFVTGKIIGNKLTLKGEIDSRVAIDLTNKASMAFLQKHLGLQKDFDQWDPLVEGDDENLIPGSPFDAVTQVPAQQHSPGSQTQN
The settings on record: for inhibition at 1 µM: 1 μM inhibitor, read-out: % Inhibition at 1 μM, D = PLA2G7; for inhibition at 10 µM: 10 μM inhibitor, read-out: % Inhibition at 10 μM, D = PLA2G7. The protocol:
as §1, §2

By inhibition is commonly meant the change of the read-out against control, counted positive when it falls. A word on the IC50: it is the concentration at which inhibition is half-maximal.

With `O=C(N1CCCCC1)n1cccn1` [Example 1, Piperidin-1-yl(1H-pyrazol-1-yl)methanone], the inhibition at 1 µM at ABHD6, on FAAH, on MAGL and at PLA2G7 was less than 25% throughout. Also, the inhibition at 10 µM at ABHD6 was greater than 75%; on FAAH, greater than 75%; at MAGL it was 25 to 75%; at PLA2G7, 25 to 75%.
Turning to `Cc1cnn(C(=O)N2CCCCC2)c1` [Example 2, (4-Methyl-1H-pyrazol-1-yl)(piperidin-1-yl)methanone], the inhibition at 1 µM on ABHD6 is 25 to 75%; at FAAH, less than 25%; on MAGL, less than 25%; at PLA2G7, less than 25%. For the same molecule, the inhibition at 10 µM on ABHD6 was greater than 75%; on FAAH it was greater than 75%; on MAGL, 25 to 75%; at PLA2G7, greater than 75%.
Take `N#Cc1cnn(C(=O)N2CCCCC2)c1` [Example 3, 1-(Piperidine-1-carbonyl)-1H-pyrazole-4-carbonitrile]: the inhibition at 1 µM at ABHD6, at FAAH, on MAGL and at PLA2G7 was greater than 75% in each case. Besides, the inhibition at 10 µM at ABHD6, at FAAH, on MAGL and on PLA2G7 was greater than 75% each time.
With `CC(C)(C)OC(=O)N1CCN(C(=O)n2cccn2)CC1` [Example 4, tert-Butyl 4-(1H-pyrazole-1-carbonyl)piperazine-1-carboxylate], the inhibition at 1 µM on ABHD6 is 25 to 75%; at FAAH it was greater than 75%; at MAGL it was less than 25%; at PLA2G7 it was less than 25%. Further, the inhibition at 10 µM was greater than 75% at ABHD6, greater than 75% on FAAH, 25 to 75% on MAGL and greater than 75% at PLA2G7.
With `Cc1cnn(C(=O)N2CCN(C(=O)OC(C)(C)C)CC2)c1` [Example 5, tert-Butyl 4-(4-methyl-1H-pyrazole-1-carbonyl)piperazine-1-carboxylate], the inhibition at 1 µM was 25 to 75% on ABHD6, less than 25% on FAAH, less than 25% on MAGL and greater than 75% on PLA2G7. Further, the inhibition at 10 µM at ABHD6 is greater than 75%; on FAAH, greater than 75%; on MAGL, 25 to 75%; on PLA2G7 it was greater than 75%.
On to `CC(C)(C)OC(=O)N1CCN(C(=O)n2cc(C#N)cn2)CC1` [Example 6, tert-Butyl 4-(4-cyano-1H-pyrazole-1-carbonyl)piperazine-1-carboxylate], for which the inhibition at 1 µM on ABHD6, at FAAH, on MAGL and at PLA2G7 was greater than 75% in each case. Besides, the inhibition at 10 µM on ABHD6, at FAAH, on MAGL and on PLA2G7 was greater than 75% in each case.
In the case of `O=C(N1CCN(Cc2ccccc2)CC1)n1cccn1` [Example 7, (4-Benzylpiperazin-1-yl)(1H-pyrazol-1-yl)methanone], the inhibition at 1 µM at ABHD6 was less than 25%; at FAAH, less than 25%; at MAGL it was greater than 75%; at PLA2G7 it was less than 25%. For the same molecule, the inhibition at 10 µM on ABHD6 is greater than 75%; at FAAH, greater than 75%; at MAGL, greater than 75%; on PLA2G7, less than 25%.
Turning to `Cc1cnn(C(=O)N2CCN(Cc3ccccc3)CC2)c1` [Example 8, (4-Benzylpiperazin-1-yl)(4-methyl-1H-pyrazol-1-yl)methanone], the inhibition at 1 µM on ABHD6 was greater than 75%; at FAAH, less than 25%; on MAGL, 25 to 75%; at PLA2G7 it was less than 25%. The inhibition at 10 µM is greater than 75% at ABHD6, 25 to 75% on FAAH, greater than 75% on MAGL and greater than 75% at PLA2G7.
As for `N#Cc1cnn(C(=O)N2CCN(Cc3ccccc3)CC2)c1` [Example 9, 1-(4-Benzylpiperazine-1-carbonyl)-1H-pyrazole-4-carbonitrile], the inhibition at 1 µM at ABHD6, at FAAH, on MAGL and on PLA2G7 was greater than 75% throughout. For the same molecule, the inhibition at 10 µM on ABHD6, on FAAH, on MAGL and at PLA2G7 was greater than 75% each time. In addition, the IC50 at ABHD6 (mouse brain membrane fraction or cell lysates, 30 min preincubation at 37° C., read-out: Mouse (IC50 value, nM) ABHD6) was less than 100 nM; on FAAH (mouse brain membrane fraction or cell lysates, 30 min preincubation at 37° C., read-out: Mouse (IC50 value, nM) FAAH) it was 100 to 1000 nM; on MAGL, less than 100 nM.
Consider `O=C(N1CCN(Cc2ccc3ccccc3c2)CC1)n1cccn1` [Example 10, (4-(naphthalen-2-ylmethyl)piperazin-1-yl)(1H-pyrazol-1-yl)methanone], for which the inhibition at 1 µM was greater than 75% at ABHD6, greater than 75% at FAAH, greater than 75% at MAGL and less than 25% at PLA2G7. For the same molecule, the inhibition at 10 µM is greater than 75% at ABHD6, greater than 75% on FAAH, greater than 75% on MAGL and less than 25% on PLA2G7. The IC50 on MAGL was less than 100 nM.
On to `Cc1cnn(C(=O)N2CCN(Cc3ccc4ccccc4c3)CC2)c1` [Example 11, (4-Methyl-1H-pyrazol-1-yl)(4-(naphthalen-2-ylmethyl)piperazin-1-yl)methanone], for which the inhibition at 1 µM is greater than 75% on ABHD6, less than 25% at FAAH, greater than 75% on MAGL and less than 25% on PLA2G7. In addition, the inhibition at 10 µM was greater than 75% on ABHD6, 25 to 75% on FAAH, greater than 75% at MAGL and greater than 75% at PLA2G7.
`N#Cc1cnn(C(=O)N2CCN(Cc3ccc4ccccc4c3)CC2)c1` [Example 12, 1-(4-(Naphthalen-2-ylmethyl)piperazine-1-carbonyl)-1H-pyrazole-4-carbonitrile]: the inhibition at 1 µM at ABHD6, on FAAH, at MAGL and at PLA2G7 was greater than 75% in each case. Also, the inhibition at 10 µM at ABHD6, at FAAH, on MAGL and at PLA2G7 was greater than 75% each time.
